One assay deals with PGC-1α/β KO myotubes. Description: Gene expression (qPCR) and HIF-1α immunoblot in PGC-1α/β KO myotubes. The class given is cell-based, mice. To be noted: for effect on induction of mitochondrial ETC genes by SIRT1 overexpression: PGC-1α/β knockout myocytes/myotubes; for effect on induction of mitochondrial ETC genes by SIRT1 overexpression / effect on NMN-induced expression of mitochondrially-encoded ETC genes: 1 mM DMOG or 10 μM DFO, 12 hours; for effect on NMN-induced expression of mitochondrially-encoded ETC genes: primary PGC-1α/β KO myotubes; for nuclear- and mitochondrial-encoded genes: EX-527 48 h. The method, then: Primary myoblasts cells were isolated from WT, SIRT1 KO (Price et al., 2012) and PGC-1α/β KO (Zechner et al., 2010) mice as previously described (Price et al., 2012). WT and PGC-1α/β KO primary myoblasts were plated and allowed to differentiate into myotubes by replacing the media with low glucose DMEM supplemented with 2% horse serum (Sigma-Aldrich) for 4 days. After the differentiation the cells were infected with empty vector or flag-SIRT1 adenovirus as described before (Gerhart-Hines et al., 2007). Media was replaced with fresh DMEM supplemented with 2% horse serum (Sigma-Aldrich) for an additional 48 hr and, after that the cells were harvested for the different assays as described. To investigate the role of HIF-1α in genome asynchrony, PGC-1α/β KO primary myotubes were treated for 12 hours with 1 mM DMOG (Sigma) or 10 μM DFO (Sigma), 24 h after infection with empty vector of flag-SIRT1 adenovirus or after 12 h treatment with […] NMN (Sigma).
(§1) RNA from skeletal muscle tissue and C2C12 cells were extracted with RNeasy mini kit (Qiagen) according to the instructions and quantified using the NanoDrop 1000 spectrophotometer (Thermo Scientific). cDNA was synthesized with the iSCRIP cDNA synthesis kit (BioRad) using 600 ng of RNA. Quantitative RT-PCR reactions were performed using 1 μM of primers and LightCycler® 480 SYBR Green Master (Roche) on an LightCycler® 480 detection system (Roche). Calculations were performed by a comparative method (2-ΔCT) using 18S as an internal control. For mtDNA analysis, total DNA was extracted with DNeasy blood and tissue kit (Qiagen). mtDNA was amplified using primers specific for the mitochondrial cytochrome c oxidase subunit 2 (COX2) gene and normalized to genomic DNA by amplification of the ribosomal protein s18 (rps18) nuclear gene. Primers were designed using the IDT software (IDT) and the primer sequences can be found in Table 1.
(§2) Protein extracts from tissue or C2C12 cells were obtained by lysis in ice-cold lysis buffer (150 mM NaCl, 10 mM Tris HCl (pH 7.4), 1 mM EDTA, 1 mM EGTA, 1% Triton X-100, 0.5% NP-40) supplemented with a cocktail of protease and phosphatase inhibitors (Roche). Protein content was determined by the Bradford protein assay (Biorad), and 50 μg proteins were run on SDS-PAGE under reducing conditions. The separated proteins were then electrophoretically transferred to a polyvinylidene difluoride membrane (Perkin-Elmer). […] The immunostaining was detected using horseradish peroxidase-conjugated anti-rabbit or anti-mouse immunoglobulin for 1 h at room temperature.

Assay [1] deals with inflammation related markers (TNFa, IL-6, IL-18). The experiment in a line: qPCR of inflammation related markers in gastrocnemius. The class given is in vivo, C57BL/6J mice. To be noted: 6-month-old mice, DMOG IP 300 mg/kg/day, 5 days. On the procedure: C57BL/6J mice of 3, 6, 22, or 24 months of age were obtained from the National Institutes of Aging mouse aging colony. Mice were acclimated for at least one-week prior to sacrifice. 3, 6, 22 and 24-month-old mice were given interperitoneal (IP) injections of 500 mg NMN/kg body weight per day or the equivalent volume of PBS for 7 consecutive days at 5:00 pm and 7:00 am on day 8 and sacrificed 4 hr after last injection. All animal studies followed the guidelines of and were approved by the Harvard Institutional Animal Care and Use Committee
C57BL/6J mice of 6 months of age were given interperitoneal (IP) injections of 300 mg DMOG/kg body weight per day or the equivalent volume of PBS for 5 consecutive days. All animal studies followed the guidelines of and were approved by the Harvard Institutional Animal Care and Use Committee
RNA from skeletal muscle and aorta were extracted with RNeasy mini kit (Qiagen) according to the instructions and quantified using the NanoDrop 1000 spectrophotometer (Thermo Scientific). cDNA was synthesized with the iSCRIP cDNA synthesis kit (BioRad) using 600 ng of RNA. Quantitative RT-PCR reactions were performed using 1 μM of primers and LightCycler® 480 SYBR Green Master (Roche) on an LightCycler® 480 detection system (Roche). Calculations were performed by a comparative method (2-ΔCT) using 18S as an internal control. […]
In general terms: Real-time PCR tracks product formation cycle by cycle.

In another assay the test system is C2C12 myoblasts. Description: mtDNA content and ETC gene expression in C2C12 myoblasts. The class given is cell-based. The method, then:
C2C12 cell line (ATCC) was cultured in low glucose Dulbecco's modified eagle medium (DMEM) (Invitrogen) supplemented with 10% FBS (Invitrogen) and a mix of antibiotic and antimycotic (Invitrogen). To inhibit SIRT1, cells were treated the vehicle (0.001% DMSO) or 10 μM EX-527 (Tocris) for 12 h. C2C12 myoblasts were infected with an empty or SIRT1 adenovirus as described before (Gerhart-Hines et al., 2007) and the media was replaced with fresh DMEM for additional 48 h, after that the cells were treated as described before. To test the effects of hypoxia and HIFα stabilization in genome asyncrony, C2C12 myoblasts were exposed to 1% oxygen for 16 h or treated with the vehicle (0.001% DMSO) or DMOG (Cayman) for the same period of time.
as §1

A further assay relates to TFAM promoter. The experiment in a line: TFAM promoter activity (luciferase assay) in primary WT myoblasts. The class given is cell-based, mouse. The method, then: TFAM promoter, VHL promoter, HRE and c-Myc activity were determined using a luciferase-based system. Luciferase activity was measured using the Dual-Luciferase Reporter Assay System (Promega) with Renilla as the reference.
TFAM promoter activity was evaluated using a TFAM promotes-luc plasmid. A fragment of the mouse Tfam promoter (1.4 kb upstream of the coding sequence) was cloned into a pGL4.15 vector (Promega). Luciferase activity was measured using the Dual-Luciferase Reporter Assay System (Promega) with Renilla as the reference 48 h after transfection.

The next assay concerns HIF-1α. Description: DMOG treatment of SIRT1-tg mice (HIF-1α immunoblot, qPCR, ATP content in gastrocnemius). The class given is in vivo. To be noted: DMOG IP 300 mg/kg/day, 5 days. The method, then:
Whole body SIRT1 overexpressor (SIRT1-tg) mice of 6 months of age were given interperitoneal (IP) injections of 300 mg DMOG/kg body weight per day or the equivalent volume of PBS for 5 consecutive days.
ATP content was measured with a commercial kit according to the manufacturer's instructions (Roche).
as §1, §2

The test system of the next assay is primary myoblasts. The experiment in a line: NAD+/NADH ratio and HIF-1α immunoblot in primary WT myoblasts treated with pyruvate or lactate. To be noted: 10 mM lactate, 24 h. The class given is cell-based, mice. An excerpt:
FIG. 21 provides additional data related to the content of FIG. 14. FIG. 21A depicts HIF-1α target genes (PGK-1, Glut1, PDK1 and Vegfa) expression in gastrocnemius of WT and SIRT1 KO mice. Relative expression values were normalized to WT mice (n=5). FIG. 21B depicts hypoxia response element activity in primary myoblasts isolated from WT and SIRT1 KO mice and treated with or without DMOG. Relative luciferase activity was normalized to WT cells (n=6, *p<0.05 versus WT). FIG. 21C depicts a representative immunoblot of HIF-1α and Tubulin in PGC-1α/β KO myotubes treated with adenovirus overexpressing SIRT1 or empty vector as well as treatment with DMSO or with HIF stabilizing compound DMOG. FIG. 21D depicts NAD+/NADH ration measured in primary WT myoblasts treated with either 10 mM pyruvate, 10 mM lactate or vehicle for 24 h (n=4). […] FIG. 21J depicts mitochondrial DNA content analyzed by qPCR in control, HIF-1α DPA or HIF-2α DPA C2C12 cells treated with adenovirus overexpressing SIRT1 or empty vector. […] FIG. 21K depicts ARNT mRNA analyzed by qPCR in C2C12 cells infected with ARNT or nontargeting shRNA. […] FIG. 21L depicts mitochondrial DNA content analyzed by qPCR in C2C12 cells infected with ARNT or nontargeting shRNA. […] FIG. 21M depicts ND1, Cytb, COX1 and ATP6 mRNA analyzed by qPCR in C2C12 cells infected with ARNT or nontargeting shRNA. […] Values are expressed as mean±SEM. […]
In general terms: In western blotting, separated proteins are transferred to a membrane and probed.

[2] abbreviates: C2C12 myoblasts treated with DMOG, 16 h.

Regarding `CC(=O)N(O)CCCCCNC(=O)CCC(=O)N(O)CCCCCNC(=O)CCC(=O)N(O)CCCCCN` [DFO, desferrioxamine], in the assay on PGC-1α/β KO myotubes, the “effect on induction of mitochondrial ETC genes by SIRT1 overexpression” value is given as “completely blocked” and the “effect on NMN-induced expression of mitochondrially-encoded ETC genes” value was “completely abolished”.
In the case of `COC(=O)CNC(=O)C(=O)OC` [DMOG, dimethyloxaloylglycine], the “inflammation related markers (TNFalpha, IL-6, Il-1b and IL-18) in the skeletal muscle” value in assay [1] is “induces inflammatory markers in the skeletal muscle”. Moreover, in the assay on PGC-1α/β KO myotubes (PGC-1α/β KO cells, pyruvate in the presence of DMOG), the “effect on NAD (pyruvate) mediated increases in mitochondrial-encoded genes” value is reported as “can be inhibited”. Moreover, the HIF-1α protein result with PGC-1α/β KO myotubes (PGC-1α/β KO myotubes, DMOG (FIG. 21C)) was “stabilizes HIF-1α protein”. In the assay with PGC-1α/β KO myotubes, the “effect on induction of mitochondrial ETC genes by SIRT1 overexpression” value is “completely blocked” and the “effect on NMN-induced expression of mitochondrially-encoded ETC genes” value was “completely abolished”. Further, the “expression of mitochondrial-encoded genes” value in the assay on PGC-1α/β KO myotubes (PGC-1α/β knockout myotubes, DMOG compared to vehicle control) is recorded as “induced a decline”. In the assay on C2C12 myoblasts (setting [2]), the “expression of mitochondrially-encoded ETC genes” value is on record as “specific decline” and the mtDNA content result is “specific decline”. The “full length TFAM promoter activity” value with TFAM promoter (DMOG vs vehicle (DMSO)) is given as “reduces the full length TFAM promoter activity”. In addition, the “TFAM promoter activity with c-Myc consensus sequence mutation” value in the assay on TFAM promoter (DMOG, absence of the c-Myc binding site) is “does not have an additive effect”. For the same compound, in the assay on HIF-1α, the HIF-1α protein entry is “increase HIF-1α”, the “increase in ATP levels observed in SIRT1-tg mice” value is on record as “abolished” and the “increase in the expression of mitochondrial-encoded genes observed in SIRT1-tg mice” value is reported as “abolished the increase”.
With `NC(=O)C1CCCc2c1[nH]c1ccc(Cl)cc21` (centres unmarked) [EX-527], the “nuclear- and mitochondrial-encoded genes” value with PGC-1α/β KO myotubes (PGC-1α/β KO myotubes reconstituted with PGC-1α T177A/S538A mutant) was “only the mitochondrial-encoded genes decreased”; in the assay on PGC-1α/β KO myotubes (PGC-1α/β KO myotubes reconstituted with WT PGC-1α) it was “decreased both nuclear- and mitochondrial-encoded genes”. For the same compound, the genome asynchrony entry with C2C12 myoblasts (C2C12 cells, 10 μM EX-527, 12 h) is given as “induced”.
With `CC(O)C(=O)O` (centres unmarked) [lactate], in the assay with primary myoblasts, the HIF-1α protein result is “induces HIF-1α protein stabilization” and the “NAD+/NADH ratio” value was “decreasing”.
